Source: ChEMBL document CHEMBL3751730, “Synthesis and in vitro antitumor evaluation of dihydroartemisinin-cinnamic acid ester derivatives” (Eur J Med Chem, 2016)
Active and inactive are the calls of the source. The rule behind the calls is not given here.

Key:
A549 [1] = assay: Induction of apoptosis in human A549 cells assessed as early apoptotic cells at 10 uM after 48 hrs by Annexin V-FITC/propidium iodide staining based flow cytrometric analysis (reference value: 0.63%); assay type: functional
A549 [2] = assay: Induction of apoptosis in human A549 cells assessed as early apoptotic cells at 30 uM after 48 hrs by Annexin V/propidium iodide staining based flow cytrometric analysis in presence of 5 mM NAC (reference value: 0.63%); assay type: functional
A549 [3] = assay: Induction of apoptosis in human A549 cells assessed as cell shrinkage at 30 uM after 48 hrs by Hoechst 33258 staining based fluorescence microscopic analysis; assay type: functional
A549 [4] = assay: Induction of apoptosis in human A549 cells assessed as nuclear rounding at 30 uM after 48 hrs by Hoechst 33258 staining based fluorescence microscopic analysis; assay type: functional, cell-based
[5] = Selectivity index, ratio of IC50 for human L02 cells to IC50 for human A549 cells; assay type: functional
A549 [6] = assay: Induction of apoptosis in human A549 cells assessed as cell shrinkage at 3 uM after 48 hrs by Hoechst 33258 staining based fluorescence microscopic analysis; assay type: functional
A549 [7] = assay: Induction of apoptosis in human A549 cells assessed as early apoptotic cells at 30 uM after 48 hrs by Annexin V/propidium iodide staining based flow cytometric analysis in the absence of 3 uM DFO (reference value: 0.63%); assay type: functional
A549 [8] = assay: Cytotoxicity against human A549 cells assessed as cell viability at 3 to 30 uM after 48 hrs by MTT assay in presence of 3 uM DFO; assay type: functional, cell-based
[9] = Induction of apoptosis in human L02 cells assessed as reactive oxygen species formation at 30 uM after 48 hrs by DCFH-DA staining based fluorescence microscopic analysis; assay type: cell-based; conditions: l02, 48 h
A549 [10] = assay: Induction of reactive oxygen species generation in human A549 cells at 30 uM measured for 20 hrs by DCFH-DA staining based fluorescence assay in presence of 3 uM DFO; assay type: functional, cell-based
A549 [11] = assay: Induction of apoptosis in human A549 cells assessed as nuclear rounding at 3 uM after 48 hrs by Hoechst 33258 staining based fluorescence microscopic analysis; assay type: functional, cell-based
A549 [12] = assay: Induction of apoptosis in human A549 cells assessed as reactive oxygen species formation after 48 hrs by DCFH-DA staining based fluorescence microscopic analysis; assay type: functional, cell-based
[13] = Antiproliferative activity against human SGC7901 cells after 72 hrs by MTT assay; assay type: functional, cell-based; conditions: SGC-7901, 72 h
A549 [14] = assay: Antiproliferative activity against human A549 cells at 0.20 uM after 72 hrs by MTT assay; assay type: functional, cell-based
[15] = Cytotoxicity against human L02 cells after 72 hrs by MTT assay; assay type: cell-based; conditions: L02, 72 h
A549 [16] = assay: Induction of apoptosis in human A549 cells assessed as early apoptotic cells at 3 uM after 48 hrs by Annexin V-FITC/propidium iodide staining based flow cytrometric analysis (reference value: 0.63%); assay type: functional
A549 [17] = assay: Induction of apoptosis in human A549 cells after 48 hrs by Annexin V-FITC/propidium iodide staining based flow cytometric analysis; assay type: functional, cell-based
A549 [18] = assay: Induction of apoptosis in human A549 cells assessed as nuclei blebbing at 3 uM after 48 hrs by Hoechst 33258 staining based fluorescence microscopic analysis; assay type: functional, cell-based
A549 [19] = assay: Induction of apoptosis in human A549 cells assessed as cell viability at 3 to 30 uM after 48 hrs by MTT assay in presence of 5 mM NAC; assay type: functional, cell-based
[20] = Induction of apoptosis in human L02 cells assessed as reactive oxygen species formation at 10 uM after 48 hrs by DCFH-DA staining based fluorescence microscopic analysis; assay type: cell-based; conditions: l02, 48 h
[21] = Antiproliferative activity against human MDA-MB-435S cells after 72 hrs by MTT assay; assay type: functional, cell-based
[22] = Antiproliferative activity against human PC3 cells after 72 hrs by MTT assay; assay type: functional, cell-based; conditions: PC-3, 72 h
A549 [23] = assay: Induction of apoptosis in human A549 cells assessed as early apoptotic cells at 30 uM after 48 hrs by Annexin V/propidium iodide staining based flow cytrometric analysis in absence of 5 mM NAC (reference value: 0.63%); assay type: functional
A549 [24] = assay: Antiproliferative activity against human A549 cells after 72 hrs by MTT assay; assay type: functional, cell-based; conditions: A549, 72 h
A549 [25] = assay: Induction of apoptosis in human A549 cells assessed as nuclear rounding at 10 uM after 48 hrs by Hoechst 33258 staining based fluorescence microscopic analysis; assay type: functional, cell-based
A549 [26] = assay: Induction of apoptosis in human A549 cells assessed as nuclei blebbing at 30 uM after 48 hrs by Hoechst 33258 staining based fluorescence microscopic analysis; assay type: functional, cell-based
A549 [27] = assay: Induction of apoptosis in human A549 cells assessed as cell shrinkage at 10 uM after 48 hrs by Hoechst 33258 staining based fluorescence microscopic analysis; assay type: functional
A549 [28] = assay: Induction of apoptosis in human A549 cells assessed as early apoptotic cells at 30 uM after 48 hrs by Annexin V/propidium iodide staining based flow cytometric analysis in presence of 3 uM DFO (reference value: 0.63%); assay type: functional
[29] = Induction of apoptosis in human L02 cells assessed as reactive oxygen species formation at 30 uM measured for 20 hrs by DCFH-DA staining based FLIPR assay; assay type: cell-based; conditions: l02, 20 h
A549 [30] = assay: Induction of apoptosis in human A549 cells assessed as early apoptotic cells at 30 uM after 48 hrs by Annexin V-FITC/propidium iodide staining based flow cytrometric analysis (reference value: 0.63%); assay type: functional
A549 [31] = assay: Induction of apoptosis in human A549 cells assessed as reactive oxygen species formation at 30 uM by DCFH-DA staining based FLIPR assay; assay type: functional, cell-based; conditions: TDE = time-dependent effect
A549 [32] = assay: Induction of apoptosis in human A549 cells assessed as nuclei blebbing at 10 uM after 48 hrs by Hoechst 33258 staining based fluorescence microscopic analysis; assay type: functional, cell-based

**Q.** Which Activity (A549 [1]) does the source give for `COc1ccc(/C=C/C(=O)O[C@@H]2O[C@@H]3O[C@@]4(C)CC[C@H]5[C@H](C)[C@H](OC(=O)/C=C/c6ccc(OC)c(OC)c6)C[C@@H]([C@H]2C)[C@@]35OO4)cc1OC` here?
**A.** 14.01%

**Q.** And the Activity (A549 [2])?
**A.** 4.71%

**Q.** What about the Activity (A549 [3]) of the same compound?
**A.** Active

**Q.** And the Activity (A549 [4])?
**A.** Active

**Q.** What about the “Ratio IC50” value [5] of the same compound?
**A.** 401.25

**Q.** What about the Activity (A549 [6]) of the same compound?
**A.** Active

**Q.** What about the Activity (A549 [7]) of the same compound?
**A.** 16.88%

**Q.** What about the Activity (A549 [8]) of the same compound?
**A.** inactive

**Q.** What about the Activity [9] of the same compound?
**A.** Non-toxic

**Q.** And the Activity (A549 [10])?
**A.** inactive

**Q.** And the Activity (A549 [11])?
**A.** Active

**Q.** And the Activity (A549 [12])?
**A.** Dose-dependent effect

**Q.** What about the IC50 [13] of the same compound?
**A.** 4.94 µM

**Q.** And the Activity (A549 [14])?
**A.** Active

**Q.** And the IC50 [15]?
**A.** 80.2 µM

**Q.** And the Activity (A549 [16])?
**A.** 4.33%

**Q.** What about the Activity (A549 [17]) of the same compound?
**A.** Dose-dependent effect

**Q.** What about the Activity (A549 [18]) of the same compound?
**A.** Active

**Q.** And the Activity (A549 [19])?
**A.** inactive

**Q.** And the Activity [20]?
**A.** Non-toxic

**Q.** What about the IC50 [21] of the same compound?
**A.** 6.23 µM

**Q.** What about the IC50 [22] of the same compound?
**A.** 22.7 µM

**Q.** What about the Activity (A549 [23]) of the same compound?
**A.** 16.88%

**Q.** What about the IC50 (A549 [24]) of the same compound?
**A.** 0.2 µM

**Q.** And the Activity (A549 [25])?
**A.** Active

**Q.** And the Activity (A549 [26])?
**A.** Active

**Q.** What about the Activity (A549 [27]) of the same compound?
**A.** Active

**Q.** What about the Activity (A549 [28]) of the same compound?
**A.** 2.17%

**Q.** What about the Activity [29] of the same compound?
**A.** Non-toxic

**Q.** What about the Activity (A549 [30]) of the same compound?
**A.** 16.88%

**Q.** And the Activity (A549 [31])?
**A.** tde

**Q.** What about the Activity (A549 [32]) of the same compound?
**A.** Active
